Reference: patent US10202353B2, “Therapeutic compounds” (Gilead Sciences, Inc., priority 2014, dated 2019)

How the values were obtained:
[1] = Test B: Cytotoxicity Assay; type: cell-based; details: human, uninfected MT4 cells, same protocol as Test A
Description: (§1) For the antiviral assay, 40 μL of a concentration required to achieve a final effective 1× test concentration of 3-fold serially diluted compound in culture medium with 10% FBS was added to each well of a 384-well plate (10 concentrations) in quadruplicate. MT4 cells were next mixed with HIV-IIIb at an m.o.i of 0.003 for 1 hour, after which time 35 μL of virus/cell mixture (2000 cells) was immediately added to each well containing 40 μL of diluted compound. The plates were then incubated at 37° C. for 5 days. After 5 days of incubation, 25 μl of 2× concentrated CellTiter-Glo™ Reagent (catalog # G7571, Promega Biosciences, Inc., Madison, Wis.) was added to each well containing MT-4 cells. Cell lysis was carried out by incubating at room temperature for 10 min and then chemiluminescence was read. EC50 values were calculated as the compound concentration that caused a 50% decrease in luminescence signal, a measure of HIV-1 replication. Percent inhibition of virus-induced cell killing calculated from the dose response curve at 2 μM drug concentration is shown in the table below. Compound cytotoxicity and the corresponding CC50 values was determined using the same protocol as described in the antiviral assay (Test A) except that uninfected cells were used.

HIV-IIIb = assay: Test A: Antiviral assay in MT4 Cells; type: cell-based, HIV-1; details: Human immunodeficiency virus 1, 120 h; 2 μM drug concentration; MT4 cells infected with HIV-IIIb, 5 days; calculated from dose response curve; values normalized to 100% where greater than 100; read-out: % Inhibition at 2 μM (percent inhibition of virus-induced cell killing)
Description: as §1, with “below.” for “below. Compound cytotoxicity and the corresponding CC50 values was determined using the same protocol as described in the antiviral assay (Test A) except that uninfected cells were used.”

Row | Compound | CC50 at 5 days [1] [µM] | inhibition at 2 µM (HIV-IIIb) [%]
1 | CN(C(=O)[C@H](Cc1ccncc1)NC(=O)Cn1nc(C(F)(F)F)c2c1CCCC2)c1ccccc1 [Compound 5] | > 53 | 0
2 | CN(C(=O)[C@H](Cc1cccc(Br)c1)NC(=O)Cn1nc(C(F)(F)F)c2c1CCCC2)c1ccccc1 [Compound 19, (S)-3-(3-bromophenyl)-N-methyl-N-phenyl-2-(2-(3-(trifluoromethyl)-4,5,6,7-tetrahydro-1H-indazol-1-yl)acetamido)propanamide] | 17.3 | 27
3 | CN(C(=O)[C@H](Cc1ccccn1)NC(=O)Cn1nc(C(F)(F)F)c2c1CCCC2)c1ccccc1 [Compound 7] | > 53 | 1
4 | CN(C)c1ccc(N(C)C(=O)[C@H](Cc2ccccc2)NC(=O)Cn2nc(C(F)(F)F)c3c2CCCC3)cc1 [Compound 23, (S)—N-(4-(dimethylamino)phenyl)-N-methyl-3-phenyl-2-(2(3-(trifluoromethyl)-4,5,6,7-tetrahydro-1H-indazol-1-yl)acetamido)propanamide] | 19.2 | 100
5 | CN(C(=O)[C@H](Cc1cc(F)cc(F)c1)NC(=O)Cn1c(N)nc2c1c(=O)[nH]c(=O)n2C)c1ccc(Cl)cc1 [Compound 32, (S)-2-(2-(8-amino-3-methyl-2,6-dioxo-2,3-dihydro-1H-purin-7(6)-yl)acetamido)-N-(4-chlorophenyl)-3-(3,5-difluorophenyl)-N-methylpropanamide] | > 53 | 39
6 | CN(C(=O)[C@H](Cc1cc(F)cc(F)c1)NC(=O)Cn1nc(C(F)(F)F)c2c1CCCC2)c1ccc(F)cc1 [Compound 24, (S)-3-(3,5-difluorophenyl)-N-(4-fluorophenyl)-N-methyl-2-(2-(3-(trifluoromethyl)-4,5,6,7-tetrahydro-1H-indazol-1-yl)acetamido)propanamide] | 12.2 | 93
7 | CN(C(=O)[C@H](Cc1cc(F)cc(F)c1)NC(=O)Cc1cc(F)cc2c1OCOC2)c1ccc(Cl)cc1 [Compound 33, (S)—N-(4-chlorophenyl)-3-(3,5-difluorophenyl)-2-(2-(6-fluoro-4H-benzo[d][1,3]dioxin-8-yl)acetamido)-N-methylpropanamide] | 18.4 | 34
8 | COc1ccc(N(C)C(=O)[C@H](Cc2ccccc2)NC(=O)Cn2nc(C(F)(F)F)c3c2CCCC3)cc1 [Compound 2] | 18.4 | 100
9 | CN(C(=O)[C@H](Cc1cccnc1)NC(=O)Cn1nc(C(F)(F)F)c2c1CCCC2)c1ccccc1 [Compound 6] | > 53 | 52
10 | CN(C(=O)[C@H](Cc1cc(F)cc(F)c1)NC(=O)Cn1nc(C(F)(F)F)c2c1C(F)(F)C1CC21)c1ccc2c(c1)CNC2=O (stereo partly drawn) [Compound 34, (2S)-2-(2-(5,5-difluoro-3-(trifluoromethyl)-3b,4,4a,5-tetrahydro-1H-cyclopropa[3,4]cyclopenta[1,2-c]pyrazol-1-yl)acetamido)-3-(3,5-difluorophenyl)-N-methyl-N-(1-oxoisoindolin-5-yl)propanamide] | > 53 | 97
11 | CN(C(=O)[C@H](Cc1cscn1)NC(=O)Cn1nc(C(F)(F)F)c2c1CCCC2)c1ccccc1 [Compound 11, (S)—N-methyl-N-phenyl-3-(thiazol-4-yl)-2-(2-(3-(trifluoromethyl)-4,5,6,7-tetrahydro-1H-indazol-1-yl)acetamido)propanamide] | > 53 | 21
12 | CN(C(=O)[C@H](Cc1cncn1C)NC(=O)Cn1nc(C(F)(F)F)c2c1CCCC2)c1ccccc1 [Compound 9] | > 53 | 5
13 | COc1ccc(N(C)C(=O)[C@H](Cc2cc(F)cc(F)c2)NC(=O)Cn2nc(C(F)(F)F)c3c2CCCC3)cc1 [Compound 4, (S)-3-(3,5-difluorophenyl)-N-(4-methoxyphenyl)-N-methyl-2-(2-(3-(trifluoromethyl)-4,5,6,7-tetrahydro-1H-indazol-1-yl)acetamido)propanamide] | 12.5 | 100
14 | CN(C(=O)[C@H](Cn1cccn1)NC(=O)Cn1nc(C(F)(F)F)c2c1CCCC2)c1ccccc1 [Compound 12, (S)—N-methyl-N-phenyl-3-(1H-pyrazol-1-yl)-2-(2-(3-(trifluoromethyl)-4,5,6,7-tetrahydro-1H-indazol-1-yl)acetamido)propanamide] | > 53 | 10
15 | CN(C(=O)[C@H](Cc1ccsc1)NC(=O)Cn1nc(C(F)(F)F)c2c1CCCC2)c1ccccc1 [Compound 22, (S)—N-methyl-N-phenyl-3-(thiophen-3-yl)-2-(2-(3-(trifluoromethyl)-4,5,6,7-tetrahydro-1H-indazol-1-yl)acetamido)propanamide] | 25 | 94
16 | COc1ccc(N(C)C(=O)[C@H](Cc2cc(F)cc(F)c2)NC(=O)Cn2nc(C(F)(F)F)c3c2CCC(=O)C3)cc1 [Compound 28, (S)-3-(3,5-difluorophenyl)-N-(4-methoxyphenyl)-N-methyl-2-(2-(5-oxo-3-(trifluoromethyl)-4,5,6,7-tetrahydro-1H-indazol-1-yl)acetamido)propanamide] | 37.2 | 76
17 | CN(C(=O)[C@H](Cc1ccccc1)NC(=O)Cn1nc(C(F)(F)F)c2c1CCCCC2)c1ccccc1 [Compound 13] | 22.2 | 87
18 | CN(C(=O)[C@H](Cc1cccc(C#N)c1)NC(=O)Cn1nc(C(F)(F)F)c2c1CCCC2)c1ccccc1 [Compound 15, (S)-3-(3-cyanophenyl)-N-methyl-N-phenyl-2-(2-(3-(trifluoromethyl)-4,5,6,7-tetrahydro-1H-indazol-1-yl)acetamido)propanamide] | 26.3 | 26
19 | CN(C(=O)[C@H](Cc1csc2ccccc12)NC(=O)Cn1nc(C(F)(F)F)c2c1CCCC2)c1ccccc1 [Compound 10, (S)-3-(benzo[b]thiophen-3-yl)-N-methyl-N-phenyl-2-(2-(3-(trifluoromethyl)-4,5,6,7-tetrahydro-1H-indazol-1-yl)acetamido)propanamide] | 10.5 | 2
20 | CN(C(=O)[C@H](Cc1cccs1)NC(=O)Cn1nc(C(F)(F)F)c2c1CCCC2)c1ccccc1 [Compound 8] | 25.6 | 95
21 | CN(C(=O)[C@H](Cc1cccc(C(N)=O)c1)NC(=O)Cn1nc(C(F)(F)F)c2c1CCCC2)c1ccccc1 [Compound 18, (S)-3-(3-(methyl(phenyl)amino)-3-oxo-2-(2-(3-(trifluoromethyl)-4,5,6,7-tetrahydro-1H-indazol-1-yl)acetamido)propyl)benzamide] | > 53 | 0
22 | CN(C(=O)[C@H](Cc1ccccc1)NC(=O)Cn1nc(C(F)(F)F)c2c1CCCC2)c1ccccc1 [Compound 1, (S)—N-methyl-N,3-diphenyl-2-(2-(3-(trifluoromethyl)-4,5,6,7-tetrahydro-1H-indazol-1-yl)acetamido)propanamide] | 23.5 | 98
23 | CN(C(=O)[C@H](CC1CCC1)NC(=O)Cn1nc(C(F)(F)F)c2c1CCCC2)c1ccccc1 [Compound 14] | 29 | 16
24 | CN(C(=O)[C@H](Cc1cc(F)cc(F)c1)NC(=O)Cn1[nH]c(=O)c2c1CCCC2)c1ccc(Cl)cc1 [Compound 30] | 22.2 | 100
25 | CN(C(=O)[C@H](Cc1ccccc1)NC(=O)Cn1nc(C(F)(F)F)c2c1CCCC2)c1ccc2ccccc2c1 [Compound 3, (S)—N-methyl-N-(naphthalen-2-yl)-3-phenyl-2-(2-(3-(trifluoromethyl)-4,5,6,7-tetrahydro-1H-indazol-1-yl)acetamido)propanamide] | 11.1 | 79
26 | CN(C(=O)[C@H](CC1CCOCC1)NC(=O)Cn1nc(C(F)(F)F)c2c1CCCC2)c1ccccc1 [Compound 20, (S)—N-methyl-N-phenyl-3-(tetrahydro-2H-pyran-4-yl)-2-(2-(3-(trifluoromethyl)-4,5,6,7-tetrahydro-1H-indazol-1-yl)acetamido)propanamdide] | > 53 | 0
27 | CN(C(=O)[C@H](Cc1cccc(C(F)(F)F)c1)NC(=O)Cn1nc(C(F)(F)F)c2c1CCCC2)c1ccccc1 [Compound 21, (S)—N-methyl-N-phenyl-2-(2-(3-(trifluoromethyl)-4,5,6,7-tetrahydro-1H-indazol-1-yl)acetamido)-3-(3-(trifluoromethyl)phenyl)propanamide] | 11.3 | 0
